Calls of active or inactive are those of the source. The rule behind the calls is not given here.

Usually inhibition stands for how much of the control response was suppressed. Usually IC50 stands for the concentration that inhibits the measured activity by half. One may read the Kd as the constant that tells how readily two partners part at equilibrium.

A short description of data set [1]: Cytotoxicity against rat H9c2 cells assessed as cell viability at 20 uM after 24 hrs by MTT assay relative to control. The class given is cell-based. To be noted: read-out: Activity. In general terms: Formazan colour is commonly taken as a measure of viable cells.
The subject of data set [2] is Peritoneal macrophage. Briefly: Antiinflammatory activity in ICR mouse primary peritoneal macrophages assessed as inhibition of LPS-induced TNFalpha production at 20 uM preincubated for 60 mins followed by LPS stimulation and measured after 24 hrs by ELISA relative to control. In kind it is functional.
Data set [3] can be described thus: Cytotoxicity against rat NRK cells assessed as cell viability at 20 uM after 24 hrs by MTT assay relative to control. In kind it is cell-based. To be noted: read-out: Activity.
The test system of data set [4] is Peritoneal macrophage. The data set is described as follows: Antiinflammatory activity in ICR mouse primary peritoneal macrophages assessed as inhibition of LPS-induced TNFalpha production preincubated for 2 hrs followed by LPS stimulation and measured after 22 hrs by ELISA. The class given is functional, cell-based.
For data set [5], the system named is Peritoneal macrophage. The data set is described as follows: Antiinflammatory activity in ICR mouse primary peritoneal macrophages assessed as inhibition of LPS-induced IL-6 production preincubated for 2 hrs followed by LPS stimulation and measured after 22 hrs by ELISA. The class given is functional, cell-based. On the technique in general: An ELISA detects its analyte on a solid surface through an enzyme-linked reagent.

The subject of data set [6] is Peritoneal macrophage. Briefly: Antiinflammatory activity in ICR mouse primary peritoneal macrophages assessed as inhibition of LPS-induced IL-6 production at 20 uM preincubated for 60 mins followed by LPS stimulation and measured after 24 hrs by ELISA relative to control. The class given is functional.
A short description of data set [7]: Cytotoxicity against ICR mouse primary peritoneal macrophages assessed as cell viability at 20 uM after 24 hrs by MTT assay relative to control. To be noted: read-out: Activity. In kind it is cell-based, Peritoneal macrophage.
Data set [8] has as its system Mus musculus. Briefly: Antiinflammatory activity in LPS-induced C57/BL6 mouse model of acute lung injury assessed as reduction in TNFalpha level in BALF at 10 mg/kg, ip pretreated for 30 mins followed by LPS challenge measured after 6 hrs by ELISA. In kind it is functional, organism-based.
Data set [9] relates to Mus musculus. Briefly: Antiinflammatory activity in LPS-induced C57/BL6 mouse model of acute lung injury assessed as reduction in TNFalpha level in serum at 10 mg/kg, ip pretreated for 30 mins followed by LPS challenge measured after 6 hrs by ELISA. In kind it is functional, organism-based.
The target of data set [10] is T1, Myeloid differentiation primary response protein MyD88 (Homo sapiens, UniProt Q99836). The data set is described as follows: Binding affinity to recombinant human MyD88 TIR domain (157 to 296 residues) expressed in Escherichia coli BL21(DE3) by surface plasmon resonance analysis.
The target of data set [11] is Myeloid differentiation primary response protein MyD88 (Mus musculus) (UniProt P22366). The data set is described as follows: Inhibition of MyD88 in ICR mouse primary peritoneal macrophages assessed as reduction in LPS-induced JNK phosphorylation at 20 uM preincubated for 30 mins followed by LPS-stimulation and measured after 20 mins by Western blot analysis. (In general: In western blotting, separated proteins are transferred to a membrane and probed.)

Data set [12] shares this target. Briefly: Inhibition of MyD88 in ICR mouse primary peritoneal macrophages assessed as reduction in LPS-induced p38 MAPK phosphorylation at 20 uM preincubated for 30 mins followed by LPS-stimulation and measured after 20 mins by Western blot analysis.
For data set [13], the system named is Mus musculus. Briefly: Antiinflammatory activity in LPS-induced C57/BL6 mouse model of acute lung injury assessed as reduction in IL6 level in serum at 10 mg/kg, ip pretreated for 30 mins followed by LPS challenge measured after 6 hrs by ELISA. In kind it is functional, organism-based.
The subject of data set [14] is Mus musculus. The data set is described as follows: Antiinflammatory activity in LPS-induced C57/BL6 mouse model of acute lung injury assessed as reduction in lung wet/dry ratio at 10 mg/kg, ip pretreated for 30 mins followed by LPS challenge measured after 6 hrs. In kind it is functional, organism-based.
Data set [15] concerns the target T1, Myeloid differentiation primary response protein MyD88. Briefly: Inhibition of LPS-induced HA-tagged MyD88 (unknown origin) interaction with FLAG-tagged MyD88 (unknown origin) expressed in HEK293 cells at 20 uM after 48 hrs by co-immunoprecipitation method. The class given is cell-based.
Data set [16] addresses Myeloid differentiation primary response protein MyD88 (Mus musculus) (UniProt P22366). The data set is described as follows: Inhibition of MyD88 in ICR mouse primary peritoneal macrophages assessed as reduction in LPS-induced ERK phosphorylation at 20 uM preincubated for 30 mins followed by LPS-stimulation and measured after 20 mins by Western blot analysis.
Data set [17] relates to Mus musculus. The data set is described as follows: Antiinflammatory activity in LPS-induced C57/BL6 mouse model of acute lung injury assessed as reduction in IL6 level in BALF at 10 mg/kg, ip pretreated for 30 mins followed by LPS challenge measured after 6 hrs by ELISA. In kind it is functional, organism-based.

T1 sequence (Q99836 whole entry, the tested form may be a part): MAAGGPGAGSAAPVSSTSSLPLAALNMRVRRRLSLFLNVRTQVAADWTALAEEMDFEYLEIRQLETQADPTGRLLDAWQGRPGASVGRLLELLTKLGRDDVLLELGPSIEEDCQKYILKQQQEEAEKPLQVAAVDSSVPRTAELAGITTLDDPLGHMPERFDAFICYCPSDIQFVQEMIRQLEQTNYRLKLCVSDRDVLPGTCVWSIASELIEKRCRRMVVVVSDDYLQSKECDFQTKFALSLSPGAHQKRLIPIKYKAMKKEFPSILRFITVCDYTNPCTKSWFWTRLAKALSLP
Myeloid differentiation primary response protein MyD88 (Mus musculus), sequence (P22366 whole entry): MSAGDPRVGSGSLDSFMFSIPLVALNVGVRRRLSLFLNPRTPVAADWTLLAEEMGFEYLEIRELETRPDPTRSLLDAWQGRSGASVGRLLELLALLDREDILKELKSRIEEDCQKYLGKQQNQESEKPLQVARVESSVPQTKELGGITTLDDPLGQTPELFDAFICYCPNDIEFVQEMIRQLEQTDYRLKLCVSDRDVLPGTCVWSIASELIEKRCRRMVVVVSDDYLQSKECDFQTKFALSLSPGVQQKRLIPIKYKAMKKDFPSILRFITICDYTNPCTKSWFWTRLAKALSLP

For the molecule `COc1ccc(-c2csc(NC(=O)CCN3CCN(Cc4cccc([N+](=O)[O-])c4)CC3)n2)cc1OC`, the viability at 24 h, 20 µM in data set [1], in data set [3] and in data set [7] was over 80% in each case. In addition, the inhibition at 20 µM amounted to 87.6% in the data set with Peritoneal macrophage [2] and 90.2% with Peritoneal macrophage [6]. The IC50 with Peritoneal macrophage [4] came out at 1.77 µM; in the data set on Peritoneal macrophage [5], 3.15 µM. Further, the inhibition result in the data set with Peritoneal macrophage [4] and in the data set on Peritoneal macrophage [5] was “Dose-dependent effect” each time.
For the molecule `O=C(CCN1CCN(Cc2ccccc2)CC1)Nc1nc(-c2ccccc2)cs1`, the result in the data set with Mus musculus [8], with Mus musculus [9], in the data set on Mus musculus [13], in the data set with Mus musculus [14] and in the data set on Mus musculus [17] was Active. The inhibition at 20 µM worked out at 47% in the data set with Peritoneal macrophage [2] and 69.3% with Peritoneal macrophage [6]. Further, in data set [10], the Ka was determined as 3340 M⁻¹ s⁻¹. Also, in data set [10], the Kd stood at 180 µM. Further, in data set [10], the Kdiss was 0.6 s⁻¹. For the same molecule, the results for the IC50 in the data set on Peritoneal macrophage [4] and in the data set on Peritoneal macrophage [5] were 11.9 µM and 10.2 µM, respectively. Moreover, the inhibition result in [11], in data set [12], in data set [15] and in data set [16] was “Active” each time.
Regarding `O=C(CCN1CCN(Cc2cccc([N+](=O)[O-])c2)CC1)Nc1nc(-c2ccccc2Br)cs1`, the viability at 24 h, 20 µM in data set [1], in data set [3] and in [7] was over 80% in each case. The inhibition at 20 µM was 83.2% in the data set with Peritoneal macrophage [2] and 86.9% in the data set with Peritoneal macrophage [6]. Further, the IC50 was 5.15 µM in the data set with Peritoneal macrophage [4] and 4.65 µM in the data set on Peritoneal macrophage [5]. The inhibition entry in the data set with Peritoneal macrophage [4] and in the data set with Peritoneal macrophage [5] was “Dose-dependent effect” in each case.
As for `O=C(CCN1CCN(Cc2cccc([N+](=O)[O-])c2)CC1)Nc1nc(-c2ccc([N+](=O)[O-])cc2)cs1`, the values for the inhibition at 20 µM with Peritoneal macrophage [2] and in the data set on Peritoneal macrophage [6] were 32.4% and 58.8%, respectively.
With `N#Cc1ccc(-c2csc(NC(=O)CCN3CCN(Cc4cccc([N+](=O)[O-])c4)CC3)n2)cc1`, the inhibition at 20 µM was found to be 49.7% with Peritoneal macrophage [2] and 50.6% in the data set with Peritoneal macrophage [6].
